Read-outs that look alike come from different tables or passages of the source.
Tests used:
hBGT-1 = biological target: T1, hBGT-1 (Homo sapiens, UniProt P48065); assay: [3H]GABA uptake, full competition curves at cloned hBGT-1 (transient transfection, COS cells); type: cell-based; set-up: expressed in transfected cells; host or cells: COS cells, transient (DEAE-dextran)
T1 sequence (P48065 1-614): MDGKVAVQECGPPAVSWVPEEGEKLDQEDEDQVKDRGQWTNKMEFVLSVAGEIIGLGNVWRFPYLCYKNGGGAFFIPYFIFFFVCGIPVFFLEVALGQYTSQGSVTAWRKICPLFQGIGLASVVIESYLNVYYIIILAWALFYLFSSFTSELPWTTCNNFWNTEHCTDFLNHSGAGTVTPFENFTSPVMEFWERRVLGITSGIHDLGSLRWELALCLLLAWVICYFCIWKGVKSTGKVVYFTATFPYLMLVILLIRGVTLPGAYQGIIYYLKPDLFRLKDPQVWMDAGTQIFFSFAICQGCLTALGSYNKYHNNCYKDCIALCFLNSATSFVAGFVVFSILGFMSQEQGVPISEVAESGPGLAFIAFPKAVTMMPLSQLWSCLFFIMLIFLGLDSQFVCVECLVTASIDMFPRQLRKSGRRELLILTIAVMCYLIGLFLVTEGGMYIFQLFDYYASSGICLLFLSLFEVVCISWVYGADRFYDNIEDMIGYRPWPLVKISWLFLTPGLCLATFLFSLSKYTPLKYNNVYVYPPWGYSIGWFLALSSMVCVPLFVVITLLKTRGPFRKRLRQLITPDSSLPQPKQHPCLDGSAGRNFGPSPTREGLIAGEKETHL

rat brain aggregates = assay: [3H]GABA uptake by brain aggregates; type: cell-based
Protocol: Briefly, adult rat brains were removed from the skull and the cerebral cortex was dissected and placed in ice-cold HBS. […] The preparation was washed once by centrifugation, then resuspended in HBS.
The filters were washed with ice-cold HBS, punched into vials, and radioactivity determined by scintillation counting. Protein was determined in an aliquot of the aggregate preparation using the BIO-RAD protein assay kit.

rat GAT-1 = rat GAT-1 (Rattus norvegicus, UniProt P23978); assay: cell-based
Protocol: (§1) Cells grown in 24-well plates were washed 3× with HEPES-buffered saline (HBS, in mM: NaCl, 150; HEPES, 20; CaCl2, 1; glucose, 10; KCl, 5; MgCl2, 1; pH 7.4) and allowed to equilibrate on a 37° C. slide warmer. After 10 minutes the medium was removed and unlabeled drugs in HBS were added (450 μl/well). […] Plates were incubated at 37° C. for 10 minutes, then washed rapidly 3× with ice-cold HBS, using a 24-position plate washer (Brandel, Gaithersburg, Mass.; model PW-12). Cells were solubilized with 0.05% sodium deoxycholate/0.1N NaOH (0.25 ml/well), an aliquot neutralized with 1N HCl, and radioactivity was determined by scintillation counting. Protein was quantified in an aliquot of the solubilized cells using a BIO-RAD protein assay kit, according to the manufacturer's directions.
(§2) Lipophilic inhibitors were dissolved in DMSO.
(§3) Data Analysis: Competition curves were conducted in duplicate, using 10 concentrations of unlabeled drug.
(§4) COS cells grown in 75 cm^2 or 150 cm^2 flasks in DMEM with 10% bovine calf serum, 100 U/ml penicillin G, and 100 μg/ml streptomycin sulfate (37° C., 5% CO2) were transfected using DEAE-dextran. On the day following transfection the cells were split into 24-well assay plates coated with poly-D-lysine (10 μg/ml), and transport was measured 24 hours later.
(§5) After 10 minutes the medium was removed and unlabeled drugs in HBS were added (450 μl/well). […] Plates were incubated at 37° C. for 10 minutes, then washed rapidly 3× with ice-cold HBS, using a 24-position plate washer (Brandel, Gaithersburg, Mass.; model PW-12). Cells were solubilized with 0.05% sodium deoxycholate/0.1N NaOH (0.25 ml/well), an aliquot neutralized with 1N HCl, and radioactivity was determined by scintillation counting. Protein was quantified in an aliquot of the solubilized cells using a BIO-RAD protein assay kit, according to the manufacturer's directions.

rat GAT-3 = biological target: T2, rat GAT-3 (Rattus norvegicus, UniProt P31647)
T2 sequence (P31647 54-627 limits assumed): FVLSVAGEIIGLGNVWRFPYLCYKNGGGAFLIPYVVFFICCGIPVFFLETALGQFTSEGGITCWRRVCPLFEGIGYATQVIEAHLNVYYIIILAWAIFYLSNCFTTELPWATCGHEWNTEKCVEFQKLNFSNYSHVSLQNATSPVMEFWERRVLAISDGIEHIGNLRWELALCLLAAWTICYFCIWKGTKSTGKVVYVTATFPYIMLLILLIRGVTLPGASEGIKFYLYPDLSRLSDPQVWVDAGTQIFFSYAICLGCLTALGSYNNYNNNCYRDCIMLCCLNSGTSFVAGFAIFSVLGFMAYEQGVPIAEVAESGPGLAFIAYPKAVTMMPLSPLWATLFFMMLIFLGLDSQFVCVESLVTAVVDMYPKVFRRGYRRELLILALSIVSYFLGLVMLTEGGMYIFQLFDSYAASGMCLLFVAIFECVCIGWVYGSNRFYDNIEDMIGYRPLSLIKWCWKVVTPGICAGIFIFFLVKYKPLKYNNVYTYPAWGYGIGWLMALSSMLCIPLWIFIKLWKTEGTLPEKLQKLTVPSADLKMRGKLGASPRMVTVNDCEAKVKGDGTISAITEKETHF
Protocol: as §1, §2, §3, §4, §5

neuronal cultures = assay: [3H]GABA uptake in primary neuronal cell cultures; type: cell-based, rat
Protocol: Brains were removed aseptically from E17 embryonic Sprague-Dawley rats brains, carefully dissected free of meninges, and kept on ice. A single-cell suspension was made by mincing the brains, followed by trituration through a serological pipette. […] On day three cytosine β-D-arabinofuransoside (3 μM) was added to control the proliferation of non-neuronal cells. The cultures were used for transport assay approximately one week after plating.

rGAT-2 = biological target: T3, rGAT-2 (Rattus norvegicus, UniProt P31646); assay: [3H]GABA uptake, full competition curves at cloned rGAT-2 (transient transfection, COS cells); type: cell-based
T3 construct: randomly primed GAT-2 full-length or GAT-3 truncated or full-length cDNA clones; expressed in transfected cells; host or cells: COS cells, transient, plasmid pEVJB-rB14b
T3 sequence (P31646 1-602): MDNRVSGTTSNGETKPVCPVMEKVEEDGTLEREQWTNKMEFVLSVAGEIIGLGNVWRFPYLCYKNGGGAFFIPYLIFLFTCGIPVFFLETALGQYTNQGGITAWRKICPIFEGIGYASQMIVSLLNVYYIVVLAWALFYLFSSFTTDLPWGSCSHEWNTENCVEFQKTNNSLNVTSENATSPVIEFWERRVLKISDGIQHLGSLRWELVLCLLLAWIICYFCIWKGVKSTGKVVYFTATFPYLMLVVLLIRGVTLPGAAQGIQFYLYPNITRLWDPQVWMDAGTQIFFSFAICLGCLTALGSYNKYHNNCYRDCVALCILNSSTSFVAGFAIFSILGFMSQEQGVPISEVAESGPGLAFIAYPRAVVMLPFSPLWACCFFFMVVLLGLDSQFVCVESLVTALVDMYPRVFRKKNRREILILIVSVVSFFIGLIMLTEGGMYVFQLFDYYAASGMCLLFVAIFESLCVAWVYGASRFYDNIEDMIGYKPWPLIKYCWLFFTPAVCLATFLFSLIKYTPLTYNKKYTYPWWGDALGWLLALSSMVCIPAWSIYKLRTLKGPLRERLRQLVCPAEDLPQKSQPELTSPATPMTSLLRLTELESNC

[1] = Rattus norvegicus, read-out: IC50 for inhibition of [3H]GABA uptake, rat brain aggregates, control
[2] = Rattus norvegicus, Neuron, read-out: IC50 for inhibition of [3H]GABA uptake, Neurons with NNC-711, in the presence of 10 μM NNC-711
[3] = Rattus norvegicus, Neuron, read-out: IC50 for inhibition of [3H]GABA uptake, Neurons, absence of NNC-711
[4] = read-out: IC50 for inhibition of [3H]GABA uptake, Neurons, absence of NNC-711
[5] = read-out: IC50 for inhibition of [3H]GABA uptake, hBGT-1 (Table 8), full competition curves, 50 nM [3H]GABA
[6] = read-out: IC50 for inhibition of [3H]GABA uptake, rat brain aggregates, control, absence of NNC-711
[7] = read-out: IC50 for inhibition of [3H]GABA uptake, rat brain aggregates, with NNC-711, in the presence of 10 μM NNC-711
[8] = read-out: IC50 for inhibition of [3H]GABA uptake, rGAT-3 (Table 8), full competition curves, 50 nM [3H]GABA
[9] = read-out: IC50 for inhibition of [3H]GABA uptake, Neurons with NNC-711, in the presence of 10 μM NNC-711
[10] = read-out: IC50 for inhibition of [3H]GABA uptake, rGAT-2 (Table 8), full competition curves, 50 nM [3H]GABA

| Compound | IC50 (hBGT-1) | IC50 (rat brain aggregates; [1]) | IC50 (rat GAT-1) | IC50 (rat GAT-3) | IC50 (neuronal cultures; [2]) | IC50 (neuronal cultures; [3]) | IC50 (neuronal cultures; [4]) | IC50 (rGAT-2) | IC50 (hBGT-1; [5]) | IC50 (rat brain aggregates; [7]) | IC50 (rat GAT-3; [8]) | IC50 (neuronal cultures; [9]) | IC50 (rGAT-2; [10]) | further results |
| --- | --- | --- | --- | --- | --- | --- | --- | --- | --- | --- | --- | --- | --- | --- |
| N[C@@H]1CCC[C@H](C(=O)O)C1 (relative stereo) [ACHC, cis-3-aminocyclohexanecarboxylic acid] | 1070 µM | 31 µM | 132 ± 44 µM | 55100 µM | 1950 µM | ~75 µM | 77 ± 8 µM | 25900 µM |  |  |  |  |  | IC50 (neuronal cultures; Rattus norvegicus, read-out: IC50, NNC-711-resistant GABA transport, neuronal cultures, in the presence of 10 μM NNC-711): ~2000 µM |
| NCCCC(=O)O [GABA, gamma-aminobutyric acid] |  |  |  | 33 ± 10 µM |  |  |  | 17 ± 6 µM |  |  |  |  |  |  |
| N=C(N)NCCS(=O)(=O)O [GES, guanidinoethanesulfonic acid] |  |  |  |  |  |  | 2110 µM |  | 4800 µM | 410 ± 100 µM | 915 ± 49 µM | 508 ± 60 µM | 696 ± 110 µM | IC50 (rat brain aggregates; [6]): 1340 µM |
| NCC[C@H](N)C(=O)O [L-DABA, L-(2,4)diaminobutyric acid] | 528 ± 62 µM | 22 ± 3 µM | 128 ± 12 µM | 710 ± 237 µM | 861 ± 225 µM | 165 ± 20 µM |  | 300 ± 51 µM |  |  |  |  |  |  |
| O=C(O)C1=CCCN(CCON=C(c2ccccc2)c2ccccc2)C1 [NNC-711] |  |  |  |  |  |  | 0.28 ± 0.1 µM |  | 3570 µM | 323 ± 70 µM | 349 ± 151 µM |  | 729 ± 319 µM | [3H]GABA uptake that persists, rat brain aggregates (rat brain aggregates; NNC-711 at 10 μM): 15±2%; IC50 (rat brain aggregates; read-out: IC50 for GABA uptake, rat brain aggregates): 0.09 µM; IC50 (rat GAT-3; read-out: IC50 for inhibition of [3H]GABA uptake, rat GAT-3, transient transfection, 50 nM [3H]GABA): 349 ± 151 µM; specific [3H]GABA uptake that persisted, neuronal cultures (neuronal cultures; NNC-711 at 10 μM): 31±1%; IC50 (neuronal cultures; read-out: IC50 for [3H]GABA uptake, neuronal cultures): ~0.3 µM |
| O=C(O)C1=CCCNC1 [guvacine] | 1420 µM | 10 ± 2 µM | 39 ± 6 µM | 378 ± 175 µM |  |  |  | 228 ± 38 µM |  |  |  |  |  | IC50 (neuronal cultures; Rattus norvegicus, Neuron, read-out: IC50 for inhibition of [3H]GABA uptake, Neurons): 14 ± 2 µM |
| NCCS(=O)O [hypotaurine] | 536 ± 41 µM | 692 ± 100 µM | 1010 µM | 73 ± 7 µM | 25 ± 2 µM | 742 ± 200 µM |  | 52 ± 6 µM |  |  |  |  |  |  |
| NCCS(=O)(=O)O [taurine, 2-aminoethanesulfonic acid] | 13200 µM | 67000 µM | 32300 µM | 2860 µM |  |  |  | 1270 µM |  |  |  |  |  |  |
| NCCC(=O)O [β-alanine] | 1100 µM |  | 2920 ± 197 µM | 110 ± 40 µM | ~50 µM | 4060 µM |  | 66 ± 9 µM |  |  |  | 48 ± 10 µM |  | IC50 (rat brain aggregates; Rattus norvegicus, read-out: IC50 for GABA transport, brain aggregates): 3000 µM; IC50 (rat brain aggregates; Rattus norvegicus, read-out: IC50 for inhibition of [3H]GABA uptake, rat brain aggregates, control, absence of NNC-711): 2930 µM; IC50 (rat brain aggregates; Rattus norvegicus, read-out: IC50 for inhibition of [3H]GABA uptake, rat brain aggregates, with NNC-711, in the presence of 10 μM NNC-711): 33 µM; IC50 (neuronal cultures; Rattus norvegicus, read-out: IC50 for [3H]GABA uptake, neuronal cultures, absence of NNC-711): ~4000 µM |
| hydroxynipecotic acid [OH-nipecotic] |  |  |  |  |  |  | 22 ± 2 µM |  | 3840 µM | 69 ± 10 µM | 467 ± 53 µM | 304 ± 100 µM | 567 ± 50 µM | IC50 (rat brain aggregates; [6]): 10 ± 1 µM |

Reference: patent US20030143729A1 (Synaptic Pharmaceutical Corporation, priority 1992, published 2003)
